Data as given in patent US20050187302A1, “Method for treatment or prevention of osteoporosis in individuals with high bone turnover” (Hormos Medical Corporation, priority 2004, published 2005).
Read-outs that look alike come from different tables or passages of the source.

Experiments:
[1] = test system: ovariectomized (OVX) female rats; conditions: female rats 2 months old, ospemifene 10 mg/kg, change from baseline, n = 6
Experimental: (§1) High bone turnover was induced to 2-4 months old female rats by ovariectomy (OVX). Treatment with ospemifene was started at different time points after OVX: 1 day, 1, 2, and 3 months after OVX. Bone resorption was evaluated in short-term by bone specific TRAP5b, which is a […] secreted specifically by osteoclasts, and later by pyridinoline/deoxypyridinoline cross links, which are degradation products of bone collagen and excreted in the urine. Finally, during autopsy, usually after 3 months treatment, trabecular bone mineral density was measured.

[2] = test system: ovariectomized (OVX) female rats; conditions: for Urine total pyridinoline/deoxypyridoline crosslinks, change from base line at 30 days: started one day after OVX, 30 days after OVX; for Trabecular BMD mg/cm^2: 3 months treatment, tibial trabecular bone
Experimental: as §1
Female rats, age about 4 months, were ovariectomized. Treatment with vehicle or ospemifene was started at different periods after OVX (from one day to 3 months). The ospemifene doses were 5, 10 or 25 mg/kg and the treatment period was 3 months. Evaluation of the bone occurred by bone mineral density measurement of tibial trabecular bone after the treatment and in some groups also by bone collagen degradation products excreted in the urine.

[3] = test system: postmenopausal women; conditions: postmenopausal women with high bone marker levels at baseline, daily doses 60 mg and 90 mg, 12 weeks
Experimental: In the clinical trials, bone turnover was evaluated by measuring the levels of bone formation markers in serum and bone resorption markers in urine. Both bone resorption markers e.g. amino terminal telopeptide of type I collagen (U-NTX) and carboxy terminal telopeptide of type I collagen (U-CTX) and formation markers e.g. amino terminal propeptide of type I procollagen (S-PINP) and carboxy terminal propeptide of type I procollagen (S-PICP) are increased in menopause, indicating high bone turnover.
Most of the women had normal bone marker levels at baseline. […] The upper limit of normal range in women was 84 μg/l for S-PINP, 65 nmol/mmol Crea for U-NTX, 170 μg/l for S-PICP and 680 μg/mmol Crea for U-CTX.

OCCOc1ccc(/C(=C(/CCCl)c2ccccc2)c2ccccc2)cc1 [Ospemifene]
Change of TRAP5b activity in serum (%) 2 days after OVX [1]: −23.3 ± 5.8% | Urine total pyridinoline/deoxypyridoline crosslinks, change from base line at 30 days ([2]; 5 mg/kg daily): 55 ± 16 | Trabecular BMD mg/cm^2 ([2]; 5 mg/kg, treatment started 1 day after OVX, n = 20): 374 ± 21 mg/cm^2 | Trabecular BMD mg/cm^2 ([2]; 10 mg/kg, treatment started 1 month after OVX, n = 8): 138 ± 24 mg/cm^2 | Trabecular BMD mg/cm^2 ([2]; 10 mg/kg, treatment started 2 months after OVX, n = 8): 78 ± 14 mg/cm^2 | Trabecular BMD mg/cm^2 ([2]; 10 mg/kg, treatment started 3 months after OVX, n = 8): 78 ± 17 mg/cm^2 | Urine total pyridinoline/deoxypyridoline crosslinks, change from base line at 30 days ([2]; 25 mg/kg daily): 33 ± 20 | Trabecular BMD mg/cm^2 ([2]; 25 mg/kg, treatment started 1 day after OVX, n = 20): 392 ± 15 mg/cm^2 | Excretion of crosslinks, resorption marker (in words) ([2]; first month after OVX, high bone turnover): significantly decreases the excretion of crosslinks | Effect on OVX-induced bone loss (in words) ([2]; treatment started 1 month after OVX, bone turnover high): significant beneficial bone effect | Effect on OVX-induced bone loss (in words) ([2]; treatment started 2 months after OVX, bone turnover markedly decreased): modest beneficial bone effect | Effect on OVX-induced bone loss (in words) ([2]; treatment started 3 months after OVX, bone turnover low): almost lost the benefial bone effect | Effect on OVX-induced bone loss (in words) ([2]; treatment started 1 day after OVX, bone turnover very high): able to prevent almost completely the OVX-induced bone loss | Change in bone formation and resorption markers (S-PINP, S-PICP, U-CTX, U-NTX) (in words) [3]: large decrease both in formation and resorption bone markers
